Results reported in patent US12054494B2, “Compound with anticancer activity” (KYOWA KIRIN CO., LTD., priority 2018, dated 2024).

test system: SU-DHL-4 cells; assay: Inhibitory effect on cell viability (Cell Counting Kit-8); assay type: cell-based; details: Homo sapiens, 72 hours culture with test compound, concentration showing 90% inhibition rate of cell viability
Method: Inhibitiory Effect on Cell Viability
SU-DHL-4 cells (Code No. ACC 495, Deutsche Sammlung von Mikroorganismen and Zellkulturen GmbH) were cultured at 37° C. using a carbon dioxide incubator (95% air, 5% CO2) in RPMI1640 medium (Code No. 11875-093, Thermo Fisher Scientific) in which inactivated fetal bovine serum (FBS: Code No. 10099-148, Thermo Fisher Scientific) in an amount to give a final concentration of 10 vol % and penicillin/streptomycin solution (PS: Code No. 15140-122, Thermo Fisher Scientific) in an amount to give a final concentration of 1 vol % were added. The cells were passaged twice a week at a volume of 20-40 mL so as to maintain a cell concentration of 1×10^6 cells/mL or less.
The cultured SU-DHL-4 cells were seeded at 2000 cells/well in a transparent 384-well plate (Code No. 781182, Greiner bio-one). After seeding, the cells were precultured at 37° C. in a carbon dioxide gas incubator for 18 to 25 hours. Next, 1, 0.1 or 0.01 mmol/L DMSO solution of the test compound was prepared and a 9-step dilution series were prepared so that the concentration will be 200 times the final concentration in the RPMI1640 medium containing the above FBS and PS, and 1/200 volume of the dilution series were added to each well. At this time, the final concentration of DMSO was adjusted to be 0.1 vol %. After adding the test compound, the cells were cultured at 37° C. in a carbon dioxide gas incubator for 72 hours. Next, 0.020 mL of Cell Counting Kit-8 (Code No. CK04, DOJINDO) solution diluted 2-fold or 4-fold with phosphate buffered saline (PBS) was added to each well. Color reaction was carried out in a carbon dioxide gas incubator at 37° C. for 2 to 3 hours, and the absorbance at a wavelength of 450 nm was measured using SpectraMax 340PC (Molecular Devices). The inhibition rate of cell viability was calculated by the following formula, and the concentration of the test compound (IC90 value) showing a 90% inhibition rate of cell viability was calculated. Inhibition rate of cell viability (%)=100−(A−B)/(C−B)×100 • A: Absorbance of a well containing test compound • B: Absorbance of a well without addition of cells • C: Absorbance of a well without addition of test compound

| SMILES | IC90 [nM] |
| --- | --- |
| CCC(=O)N1c2ccccc2[C@H](Nc2ccc(NC(=O)C3CN(C(=O)c4ccc(N[C@@H]5C[C@H](C)N(C(=O)CC)c6ccccc65)cc4)C3)cc2)C[C@@H]1C (relative stereo) [Compound 2h, 1-(4-{[(2S,4R)-2-Methyl-1-propionyl-1,2,3,4-tetrahydroquinolin-4-yl]amino}benzoyl)-N-(4-{[(2S*,4R*)-2-methyl-1-propionyl-1,2,3,4-tetrahydroquinolin-4-yl]amino}phenyl)azetidine-3-carboxamide] | 0.03 |
| CCC(=O)N1c2ccccc2[C@H](Nc2ccc(NC(=O)CN3CC=C(c4ccc(N[C@@H]5C[C@H](C)N(C(=O)CC)c6ccccc65)cc4)CC3)cc2)C[C@@H]1C [Compound 5k, N-(4-(((2S,4R)-2-Methyl-1-propionyl-1,2,3,4-tetrahydroquinolin-4-yl)amino)phenyl)-2-(4-(4-(((2S,4R)-2-methyl-1-propionyl-1,2,3,4-tetrahydroquinolin-4-yl)amino)phenyl)-3,6-dihydropyridin-1(2H)-yl)acetamide] | 7.48 |
| CCC(=O)N1c2ccccc2[C@H](Nc2ccc(NC(=O)NCCNC(=O)c3ccc(N[C@@H]4C[C@H](C)N(C(=O)CC)c5ccccc54)cc3)cc2)C[C@@H]1C (relative stereo) [Compound 6l, 4-(((2S,4R)-2-Methyl-1-propionyl-1,2,3,4-tetrahydroquinolin-4-yl)amino)-N-(2-(3-(4-(((2S*,4R*)-2-methyl-1-propionyl-1,2,3,4-tetrahydroquinolin-4-yl)amino)phenyl)ureido)ethyl)benzamide] | 0.35 |
| CCC(=O)N1c2ccccc2[C@H](Nc2ccc(SCCNC(=O)c3ccc(C4=NCc5nnc(C)n5-c5sc(C)c(C)c54)cc3)cc2)C[C@@H]1C [Compound 14s, N-(2-((4-(((2S,4R)-2-Methyl-1-propionyl-1,2,3,4-tetrahydroquinolin-4-yl)amino)phenyl)thio)ethyl)-4-(2,3,9-trimethyl-6H-thieno[3,2-f][1,2,4]triazolo[4,3-a][1,4]diazepin-4-yl)benzamide] | 2.2 |
| CCC(=O)N1c2ccccc2[C@H](Nc2ccc(C(=O)NC3CCN(C(=O)c4ccc(N[C@@H]5C[C@H](C)N(C(=O)CC)c6ccccc65)cc4)CC3)cc2)C[C@@H]1C (relative stereo) [Compound 1c, 4-{[(2S*,4R*)-2-Methyl-1-propionyl-1,2,3,4-tetrahydroquinolin-4-yl]amino}-N-[1-(4-{[(2S*,4R*)-2-methyl-1-propionyl-1,2,3,4-tetrahydroquinolin-4-yl]amino}benzoyl)piperidin-4-yl]benzamide] | 7.85 |
| CCC(=O)N1c2ccccc2[C@H](Nc2ccc(NS(=O)(=O)c3cccc(NC(=O)c4ccc(N[C@@H]5C[C@H](C)N(C(=O)CC)c6ccccc65)cc4)c3)cc2)C[C@@H]1C (relative stereo) [Compound 4c, 4-{[(2S,4R)-2-Methyl-1-propionyl-1,2,3,4-tetrahydroquinolin-4-yl]amino}-N-{3-[N-(4-{[(2S*,4R*)-2-methyl-1-propionyl-1,2,3,4-tetrahydroquinolin-4-yl]amino}phenyl)sulfamoyl]phenyl}benzamide] | 4.03 |
| CCC(=O)N1c2ccccc2[C@H](Nc2ccc(NC(=O)CCNC(=O)c3ccc(N[C@@H]4C[C@H](C)N(C(=O)CC)c5ccccc54)cc3)cc2)C[C@@H]1C (relative stereo) [Compound 2f, 4-{[(2S,4R)-2-Methyl-1-propionyl-1,2,3,4-tetrahydroquinolin-4-yl]amino}-N-{3-[(4-{[(2S*,4R*)-2-methyl-1-propionyl-1,2,3,4-tetra hydroquinolin-4-yl]amino}phenyl)amino]-3-oxopropyl}benzamide] | 0.23 |

The next lines start with the values.

| IC90 [nM] | SMILES |
| --- | --- |
| 0.03 | CCC(=O)N1c2ccccc2[C@H](Nc2ccc(C(=O)NCC#CC(=O)Nc3ccc(C4=NCc5nnc(C)n5-c5sc(C)c(C)c54)cc3)cc2)C[C@@H]1C [Compound 14g, 4-(((2S,4R)-2-Methyl-1-propionyl-1,2,3,4-tetrahydroquinolin-4-yl)amino)-N-(4-oxo-4-((4-(2,3,9-trimethyl-6H-thieno[3,2-f][1,2,4]triazolo[4,3-a][1,4]diazepin-4-yl)phenyl)amino)but-2-yn-1-yl)benzamide] |
| 3.42 | CCC(=O)N1c2ccccc2[C@H](Nc2ccc(-c3cnn(CCNC(=O)N4CCC(N[C@@H]5C[C@H](C)N(C(=O)CC)c6ccccc65)CC4)c3)cc2)C[C@@H]1C (relative stereo) [Compound 10d, 4-(((2S*,4R*)-2-Methyl-1-propionyl-1,2,3,4-tetrahydroquinolin-4-yl)amino)-N-(2-(4-(4-(((2S,4R)-2-methyl-1-propionyl-1,2,3,4-tetrahydroquinolin-4-yl)amino)phenyl)-1H-pyrazol-1-yl)ethyl)piperidine-1-carboxamide] |
| 21.7 | CCC(=O)N1c2ccccc2[C@H](Nc2ccc(NC(=O)CCCC(=O)Nc3ccc(N[C@@H]4C[C@H](C)N(C(=O)CC)c5cc(CCCN)ccc54)cc3)cc2)C[C@@H]1C (relative stereo) [Compound 10s, N^1-(4-(((2S*,4R*)-7-(3-Aminopropyl)-2-methyl-1-propionyl-1,2,3,4-tetrahydroquinolin-4-yl)amino)phenyl)-N^5-(4-(((2S,4R)-2-methyl-1-propionyl-1,2,3,4-tetrahydroquinolin-4-yl)amino)phenyl)glutaramide] |
| 0.16 | CCC(=O)N1c2ccccc2[C@H](Nc2ccc(NC(=O)COCC(=O)Nc3ccc(C4=NCc5nnc(C)n5-c5sc(C)c(C)c54)cc3)cc2)C[C@@H]1C [Compound 14d, N-(4-(((2S,4R)-2-Methyl-1-propionyl-1,2,3,4-tetrahydroquinolin-4-yl)amino)phenyl)-2-(2-oxo-2-((4-(2,3,9-trimethyl-6H-thieno[3,2-f][1,2,4]triazolo[4,3-a][1,4]diazepin-4-yl)phenyl)amino)ethoxy)acetamide] |
| 1.8 | CCC(=O)N1c2ccccc2[C@H](Nc2ccc(C(=O)NC3CN(C(=O)c4ccc(C5=NCc6nnc(C)n6-c6sc(C)c(C)c65)cc4)C3)cc2)C[C@@H]1C [Compound 14k, 4-(((2S,4R)-2-Methyl-1-propionyl-1,2,3,4-tetrahydroquinolin-4-yl)amino)-N-(1-(4-(2,3,9-trimethyl-6H-thieno[3,2-f][1,2,4]triazolo[4,3-a][1,4]diazepin-4-yl)benzoyl)azetidin-3-yl)benzamide] |
| 3.59 | CCC(=O)N1c2ccccc2[C@H](Nc2ccc(NC(=O)C3CN(C(=O)N4CCC(N[C@@H]5C[C@H](C)N(C(=O)CC)c6ccccc65)CC4)C3)cc2)C[C@@H]1C (relative stereo) [Compound 10e, N-(4-(((2S*,4R*)-2-Methyl-1-propionyl-1,2,3,4-tetrahydroquinolin-4-yl)amino)phenyl)-1-(4-(((2S,4R)-2-methyl-1-propionyl-1,2,3,4-tetrahydroquinolin-4-yl)amino)piperidine-1-carbonyl)azetidine-3-carboxamide] |
| 1.17 | CCC(=O)N1c2ccccc2[C@H](Nc2ccc(NC(=O)CCCC(=O)Nc3ccc(C4=NCc5nnc(C)n5-c5sc(C)c(C)c54)cc3)cc2)C[C@@H]1C (relative stereo) [Compound 14t, N^1-(4-(((2S*,4R*)-2-Methyl-1-propionyl-1,2,3,4-tetrahydroquinolin-4-yl)amino)phenyl)-N^5-(4-(2,3,9-trimethyl-6H-thieno[3,2-f][1,2,4]triazolo[4,3-a][1,4]diazepin-4-yl)phenyl)glutaramide] |
| 1.27 | Cc1sc2c(c1C)C(c1ccc(C(=O)N3CCC(NC(=O)c4ccc(C5=N[C@@H](CC(=O)OC(C)(C)C)c6nnc(C)n6-c6sc(C)c(C)c65)cc4)CC3)cc1)=NCc1nnc(C)n1-2 [Compound 14p, tert-Butyl (S)-2-(2,3,9-trimethyl-4-(4-((1-(4-(2,3,9-trimethyl-6H-thieno[3,2-f][1,2,4]triazolo[4,3-a][1,4]diazepin-4-yl)benzoyl)piperidin-4-yl)carbamoyl)phenyl)-6H-thieno[3,2-f][1,2,4]triazolo[4,3-a][1,4]diazepin-6-yl)acetate] |
| 1.47 | CCC(=O)N1c2ccccc2[C@H](Nc2ccc(-c3cn4c(n3)CN(C(=O)c3ccc(C5=NCc6nnc(C)n6-c6sc(C)c(C)c65)cc3)CC4)cc2)C[C@@H]1C [Compound 14r, 1-((2S,4R)-2-Methyl-4-((4-(7-(4-(2,3,9-trimethyl-6H-thieno[3,2-f][1,2,4]triazolo[4,3-a][1,4]diazepin-4-yl)benzoyl)-5,6,7,8-tetrahydroimidazo[1,2-a]pyrazin-2-yl)phenyl)amino)-3,4-dihydroquinolin-1(2H)-yl)propan-1-one] |
